Results from PubChem BioAssay (NCI).
Where “and” joins values, the source holds several entries; their conditions need not be identical. Equal entries are not always repeated.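 Following 48 hours of exposure in 96-well plates, responses at five concentrations were used to interpolate endpoints linearly. GI50: concentration for 50% inhibition of growth. The concentration for full growth arrest is given as TGI.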

What was measured:
Test in all cases: inhibition of tumour cell growth, NCI panel, 48 h
MDA-MB-435 = tested on: MDA-MB-435
NCI-H460 lung = tested on: NCI-H460 lung
IGROV1 ovarian = tested on: IGROV1 ovarian
OVCAR-4 ovarian = tested on: OVCAR-4 ovarian
M14 melanoma = tested on: M14 melanoma
LOX IMVI melanoma = tested on: LOX IMVI melanoma
COLO 205 colon = tested on: COLO 205 colon
ACHN renal = tested on: ACHN renal
MOLT-4 leukemia = tested on: MOLT-4 leukemia
HCT-116 colon = tested on: HCT-116 colon

SMILES | GI50 (MDA-MB-435) | GI50 (NCI-H460 lung) | TGI (NCI-H460 lung) | GI50 (IGROV1 ovarian) | TGI (OVCAR-4 ovarian) | GI50 (M14 melanoma) | TGI (M14 melanoma) | GI50 (LOX IMVI melanoma) | TGI (LOX IMVI melanoma) | GI50 (COLO 205 colon) | TGI (COLO 205 colon) | TGI (ACHN renal) | GI50 (MOLT-4 leukemia) | TGI (MOLT-4 leukemia) | GI50 (HCT-116 colon) | TGI (HCT-116 colon) | TGI (MDA-MB-435) | TGI (IGROV1 ovarian) | GI50 (OVCAR-4 ovarian) | GI50 (ACHN renal)
CCCCCCCCCC[C@H](O)[C@H](O)CC[C@@H](O)[C@H]1CC[C@@H]([C@H]2CC[C@H](CCCCCCC[C@@H](O)CC3=C[C@H](C)OC3=O)O2)O1 | 28.7 µM | 0.39 µM | 29.6 µM | 25.8 µM | 78 µM | 23.1 µM | 58.4 µM | 2.9 µM | 3.5 µM and 24.2 µM | 18 µM | 4.42 µM and 35.7 µM | > 100 µM | 23.9 µM | 94.7 µM | 0.966 µM | 61.6 µM |  |  |  | 
Clc1ccccc1-c1nnc2c(Cc3ccccc3)nc3ccccc3n12 | > 100 µM | 3.18 µM | > 100 µM | 44 µM | > 100 µM | > 60.5 µM | > 100 µM | 3.5 µM | > 100 µM | > 29.6 µM | > 100 µM | > 100 µM | 9.04 µM | > 100 µM | 3.79 µM | > 100 µM | > 100 µM | > 100 µM | 5.55 µM | 39.4 µM
Cc1cc(-c2cc(O)ccc2Cl)cc2nnc(Nc3ccc(OCCN4CCCC4)cc3)nc12 | 0.175 µM | 0.579 µM | 1.12 µM | 1.63 µM | 1.3 µM | 0.326 µM | 1.19 µM | 1.57 µM | 3.25 µM | 2.08 µM | 4.29 µM | 2.83 µM | 0.251 µM | 0.634 µM | 0.18 µM | 0.341 µM | 0.321 µM | 3.57 µM | 0.615 µM | 1.43 µM
COC(=O)c1oc2c(C(=O)/C=C/c3ccc(OC)cc3)c(OCCN(C)C)ccc2c1C | 4.57 µM | 4.56 µM | 17.5 µM | 5.99 µM | 16.8 µM | 10.6 µM | 25.5 µM | 4.52 µM | 17 µM | 4.59 µM | 19.3 µM | 19.5 µM | 2.59 µM | 7.47 µM | 4.64 µM | 19.7 µM | 16.3 µM | 21.4 µM | 5.06 µM | 5.9 µM
CCN(Cc1cccc(Cl)c1)c1ccc(CO)c(Cl)c1 | 13.5 µM | 0.35 µM | 12.3 µM | 0.111 µM | 9.87 µM | 12.6 µM | 28.6 µM | 9.11 µM | 22.3 µM | 2.43 µM | 7.53 µM | 25.1 µM | 12.1 µM | 34.7 µM | 0.105 µM | 10.3 µM | 27.5 µM | 1.62 µM | 0.505 µM | 11.9 µM
CCCCCC/C=C\CCCCCCCCCC1=C(CN2CCN(C)CC2)C(=O)C=C(OC)C1=O |  |  | 23.2 µM |  | 3.8 µM |  | 7.73 µM |  | 9.79 µM |  | 3.37 µM | 13 µM |  | 1.65 µM |  | 4.41 µM | 21.1 µM | 18.3 µM |  | 
C/C(=C(\c1ccc(OCCN2CCCCCC2)cc1)c1ccc(OC(=O)c2ccccc2)cc1)c1ccc(Cl)cc1 | 4.24 µM | 2.5 µM | 7.44 µM | 4.36 µM | 9.82 µM | 0.92 µM | 3.33 µM | 2.43 µM | 6.81 µM | 2.31 µM | 7.76 µM | 9.46 µM | 2.25 µM | 10.9 µM | 1.62 µM | 6.05 µM | 8.87 µM | 10.7 µM | 3.6 µM | 4.87 µM
CC(=O)c1cc(C(=O)c2ccc3c(c2)Sc2ccccc2N3)n2ccccc12 | 0.0018 µM and < 0.00332 µM | 0.00339 µM and 0.00332 µM |  | 0.00897 µM and 0.0258 µM |  | 0.00338 µM and 0.00332 µM | > 33.2 µM | 0.00587 µM and 0.00332 µM | > 33.2 µM | 0.00327 µM and 0.00332 µM | 0.0213 µM and 0.00993 µM |  | 0.00623 µM and 0.00332 µM | > 33.2 µM | 0.00398 µM and 0.00332 µM |  | 0.00453 µM and < 0.00332 µM | > 33.2 µM | 0.0145 µM | 0.00545 µM
C/C=C1/CC(C)C(C)(O)C(=O)OCC2C(O)CN3CCC(OC1=O)C23 (stereo not given) |  |  | > 100 µM |  | > 100 µM |  | > 100 µM |  | > 100 µM |  | > 100 µM | > 100 µM |  | > 100 µM |  | > 100 µM | > 100 µM | > 100 µM |  | 
CC(=O)C1=C(O)C=C2Oc3c(C(=O)/C=C/c4cc(Cl)cc(Cl)c4)c(O)c(C)c(O)c3[C@]2(C)C1=O | 0.493 µM | 0.528 µM | 1.77 µM | 0.673 µM | 7.17 µM | 0.567 µM | 2.28 µM | 0.512 µM | 1.79 µM | 0.408 µM | 0.988 µM | 14.2 µM | 0.409 µM | 1.33 µM | 0.465 µM | 1.38 µM | 1.87 µM | 4.69 µM | 0.565 µM | 0.513 µM
N#Cc1cnc(Nc2cc(NC[C@H]3CNCCO3)c(C(F)(F)F)cn2)cn1 | 3.56 µM | 13.4 µM | 38.3 µM | 5.57 µM | 82.7 µM | 0.388 µM | 16.7 µM | 7.15 µM | 24.2 µM | 9.61 µM | 23.6 µM |  | 3.61 µM | 55.2 µM | 23.3 µM | > 100 µM | 27.2 µM | 70.6 µM | 10.5 µM | 
CCCCCCCCCCCCOC1C(CNC(=O)C2OC3OC(C)(C)OC3C2NC(=O)CN2CCN(c3ccc(OC)cc3)CC2)OC2OC(C)(C)OC21 (stereo not given) | 5.12 µM |  |  | 4.24 µM | 15.8 µM | 4.73 µM | 18.9 µM | 3.71 µM | 12.3 µM | 2.26 µM | 4.82 µM | 11.2 µM | 3.12 µM | 10.8 µM | 3.26 µM | 18.5 µM | 17.7 µM | 16.4 µM | 3.83 µM | 3.59 µM
O=C1O/C(=C/c2ccccc2)C(c2ccccc2)=C1O |  |  |  |  | > 100 µM |  | > 100 µM |  | > 100 µM |  | > 100 µM | > 100 µM |  | > 100 µM |  | > 100 µM | 89.1 µM | > 100 µM |  | 
Cc1cn(Cc2ccc(C34CC5CC(CC(C5)C3)C4)c(O)c2)c(=O)[nH]c1=O | 2.62 µM | 12.6 µM | 42.3 µM |  | 32.1 µM | 11.5 µM | 26.9 µM | 11.3 µM | 23.3 µM | 16.4 µM | 32.2 µM | 24.3 µM | 7.5 µM | 27.5 µM | 10.7 µM | 22.5 µM | 9.02 µM |  | 12.9 µM | 10.8 µM
